Test results published in patent publication US20060154923A1, “N-phenyl-3-cyclopropylpyrazole-4-carbonitriles as ectoparasiticidal agents” (priority 2002, published 2006).
Where two headings read alike, the source gives them in different places.

Experiments:
Type in all cases: in vivo
[1] = system: Ctenocephatides felis, adult cat fleas; assay: Contact activity against adult cat fleas, coated glass vial assay
Experimental: Evaluation of the Efficacy of Test Compounds Against Adult Cat Fleas
(§1) The contact activity of a test compound against Ctenocephatides felis, adult cat fleas, is evaluated in a coated, glass vial assay. In this evaluation, a solution of test compound in acetone is allowed to dry on the interior surface of a 20 mL vial. Ten unfed adult cat fleas are added to the treated vial and mortality is assessed periodically for up to 48 h. All treatments are replicated 2 times. The data are averaged.

[2] = system: newly emerged larvae of Lucilia sericata, blowfly; assay: Efficacy against blowfly larvae, treated paper/serum bioassay; details: for % Mortality 24 h / % Mortality 48 h: blowfly larvae; for mortality at 0.2 ppm / mortality at 2 ppm / mortality at 20 ppm: Lucilia sericata
Experimental: Evaluation of Efficacy of Test Compounds Against Blowfly Larvae
The efficacy of a test compound against newly emerged larvae of Lucilia sericata, blowfly, is evaluated using a treated paper/serum bioassay. In this evaluation, a solution of test compound in acetone is applied to a filter paper disc and the disc is allowed to dry. Bovine serum and about 20 newly emerged blowfly larvae are added to the treated paper disc and the mortality is assessed at 24 h and 48 h. The data are averaged.

[3] = system: Rhipacephalus sanguineus, adult ticks; assay: Contact activity against adult ticks, coated glass vial assay
Experimental: Evaluation of the Efficacy of Test Compounds Against Adult Ticks
as §1, with “Rhipacephalus sanguineus,” for “Ctenocephatides felis,”, “ticks,” for “cat fleas,”, “coated” for “coated,”, “Five” for “Ten”, “ticks” for “cat fleas”

[4] = 24 h, read-out: % Mortality 24 h
[5] = 48 h, read-out: % Mortality 48 h

| Structure (SMILES) | % Mortality 4 h ([1]; Conc. 2 ug/cm2, 4 h) | % Mortality 24 h ([1]; Conc. 2 ug/cm2, 24 h) | % Mortality 24 h ([2]; Conc. 0.2 ppm, 24 h) | % Mortality 48 h ([2]; Conc. 0.2 ppm, 48 h) | % Mortality 24 h ([2]; Conc. 2.0 ppm, 24 h) | % Mortality 48 h ([2]; Conc. 2.0 ppm, 48 h) | % Mortality 24 h ([2]; Conc. 20.0 ppm, 24 h) | % Mortality 48 h ([2]; Conc. 20.0 ppm, 48 h) | also measured |
| --- | --- | --- | --- | --- | --- | --- | --- | --- | --- |
| CC1(c2nn(-c3c(Cl)cc(C(F)(F)F)cc3Cl)cc2C#N)CC1(Cl)Cl (centres unmarked) [Example 5] | 0% | 33% |  |  |  |  |  |  |  |
| CC1(c2nn(-c3c(Cl)cc(Cl)cc3Cl)c(Cl)c2C#N)CC1(Cl)Cl (centres unmarked) [Example 27] | 10% | 100% | 0% | 0% | 100% | 100% | 100% | 100% |  |
| N#Cc1c(C2CC2)nn(-c2c(Cl)cc(C(F)(F)F)cc2Cl)c1Cl [Example 26] | 100% | 100% |  |  | 0% | 0% | 97% | 97% | % Mortality 24 h ([2]; Conc. 10.0 ppm, 24 h): 0%; % Mortality 48 h ([2]; Conc. 10.0 ppm, 48 h): 50% |
| CCCOC=Nc1c(C#N)c(C2(C)CC2(Cl)Cl)nn1-c1c(Cl)cc(C(F)(F)F)cc1Cl (racemic) [Example 39] | 0% | 70% | 0% | 0% | 70% | 70% | 100% | 100% |  |
| CC1(c2nn(-c3c(Cl)cc(C(F)(F)F)cc3Cl)c(I)c2C#N)CC1(Cl)Cl (centres unmarked) [Example 31] | 20% | 100% | 0% | 0% | 95% | 100% | 97% | 100% | % Mortality 4 h ([3]; Conc. 0.78 ug/cm2, 4 h): 10%; % Mortality 24 h ([3]; Conc. 0.78 ug/cm2, 24 h): 20%; % Mortality 4 h ([3]; Conc. 7.80 ug/cm2, 4 h): 50%; % Mortality 24 h ([3]; Conc. 7.80 ug/cm2, 24 h): 50% |
| N#Cc1cn(-c2c(Cl)cc(C(F)(F)F)cc2Cl)nc1C1(c2ccc(Cl)cc2Cl)CC1 [Example 17] |  |  |  |  |  |  | 0% | 0% |  |
| CC1(c2nn(-c3c(Cl)cc(C(F)(F)F)cc3Cl)c(N)c2C#N)CC1(Br)Br (centres unmarked) [Example 21] | 0% | 0% | 0% | 0% | 95% | 100% | 90% | 100% | % Mortality 4 h ([3]; Conc. 0.78 ug/cm2, 4 h): 10%; % Mortality 24 h ([3]; Conc. 0.78 ug/cm2, 24 h): 10%; % Mortality 4 h ([3]; Conc. 7.80 ug/cm2, 4 h): 0%; % Mortality 24 h ([3]; Conc. 7.80 ug/cm2, 24 h): 40% |
| CC(C)(C)C(=O)Nc1c(C#N)c(C2(C)CC2(Cl)Cl)nn1-c1c(Cl)cc(C(F)(F)F)cc1Cl (centres unmarked) [Example 34] |  |  |  |  |  |  | 0% | 0% |  |
| N#Cc1nn(-c2c(Cl)cc(C(F)(F)F)cc2Cl)c(N)c1[S+]([O-])C(F)(F)F (centres unmarked) [Standard, Fipronil, reference compound] | 30% | 100% |  |  |  |  |  |  | % Mortality 4 h ([1]; Conc. 0.02 ug/cm2, 4 h): 0%; % Mortality 24 h ([1]; Conc. 0.02 ug/cm2, 24 h): 100%; % Mortality 4 h ([1]; Conc. 0.2 ug/cm2, 4 h): 10%; % Mortality 24 h ([1]; Conc. 0.2 ug/cm2, 24 h): 100%; mortality at 0.2 ppm [2, 4]: 0%; mortality at 2 ppm [2, 4]: 100%; mortality at 20 ppm [2, 4]: 100%; mortality at 0.2 ppm [2, 5]: 100%; mortality at 2 ppm [2, 5]: 100%; mortality at 20 ppm [2, 5]: 100%; % Mortality 4 h ([3]; Conc. 0.78 ug/cm2, 4 h): 90%; % Mortality 24 h ([3]; Conc. 0.78 ug/cm2, 24 h): 100%; % Mortality 4 h ([3]; Conc. 7.80 ug/cm2, 4 h): 100%; % Mortality 24 h ([3]; Conc. 7.80 ug/cm2, 24 h): 100% |
| CC1(c2nn(-c3c(Cl)cc(Cl)cc3Cl)cc2C#N)CC1(Br)Br (centres unmarked) [Example 15] | 10% | 80% | 0% | 0% | 95% | 95% | 90% | 90% |  |
| CCOC=Nc1c(C#N)c(C2(C)CC2(Cl)Cl)nn1-c1c(Cl)cc(C(F)(F)F)cc1Cl (racemic) [Example 40] | 0% | 100% |  |  | 0% | 0% | 100% | 100% |  |
| CC1(c2nn(-c3c(Cl)cc(C(F)(F)F)cc3Cl)c(NC(=O)C3CC3)c2C#N)CC1(Cl)Cl (centres unmarked) [Example 36] |  |  |  |  |  |  | 10% | 10% | % Mortality 24 h ([2]; Conc. 10.0 ppm, 24 h): 0% |
| CC1(c2nn(-c3c(Cl)cc(C(F)(F)F)cc3Cl)c(Br)c2C#N)CC1(Br)Br (centres unmarked) [Example 22] | 0% | 100% | 0% | 0% | 100% | 100% | 100% | 100% | % Mortality 4 h ([3]; Conc. 0.78 ug/cm2, 4 h): 20%; % Mortality 24 h ([3]; Conc. 0.78 ug/cm2, 24 h): 30%; % Mortality 4 h ([3]; Conc. 7.80 ug/cm2, 4 h): 0%; % Mortality 24 h ([3]; Conc. 7.80 ug/cm2, 24 h): 60% |
| CC1C(Cl)(Cl)C1(C)c1nn(-c2c(Cl)cc(C(F)(F)F)cc2Cl)cc1C#N (centres unmarked) [Example 7] | 0% | 100% |  |  | 0% | 0% | 77% | 90% | % Mortality 4 h ([3]; Conc. 0.78 ug/cm2, 4 h): 0%; % Mortality 24 h ([3]; Conc. 0.78 ug/cm2, 24 h): 10%; % Mortality 4 h ([3]; Conc. 7.80 ug/cm2, 4 h): 10%; % Mortality 24 h ([3]; Conc. 7.80 ug/cm2, 24 h): 80% |
| CN(C)c1c(C#N)c(C2(C)CC2(Cl)Cl)nn1-c1c(Cl)cc(C(F)(F)F)cc1Cl (centres unmarked) [Example 32] | 0% | 100% | 0% | 0% | 0% | 0% | 91% | 96% | % Mortality 4 h ([3]; Conc. 0.78 ug/cm2, 4 h): 0%; % Mortality 24 h ([3]; Conc. 0.78 ug/cm2, 24 h): 60%; % Mortality 4 h ([3]; Conc. 7.80 ug/cm2, 4 h): 0%; % Mortality 24 h ([3]; Conc. 7.80 ug/cm2, 24 h): 30% |
| COC=Nc1c(C#N)c(C2(C)CC2(Cl)Cl)nn1-c1c(Cl)cc(C(F)(F)F)cc1Cl (centres unmarked) [Example 37] | 10% | 100% |  |  | 0% | 0% | 100% | 100% |  |
| N#Cc1cn(-c2c(Cl)cc(C(F)(F)F)cc2Cl)nc1C1(c2ccc(Cl)cc2)CC1 [Example 10] |  |  |  |  |  |  | 0% | 0% |  |
| CC1(c2nn(-c3c(Cl)cc(C(F)(F)F)cc3Cl)c(N(C(=O)C3CC3)C(=O)C3CC3)c2C#N)CC1(Cl)Cl (centres unmarked) [Example 35] |  |  |  |  |  |  | 0% | 0% |  |
| CC1(c2nn(-c3c(Cl)cc(Cl)cc3Cl)cc2C#N)CC1 [Example 11] |  |  |  |  |  |  | 0% | 0% |  |
| CC1(c2nn(-c3c(Cl)cc(C(F)(F)F)cc3Cl)c([N+](=O)[O-])c2C#N)CC1(Cl)Cl (centres unmarked) [Example 30] | 0% | 100% |  |  |  |  | 20% | 20% | % Mortality 24 h ([2]; Conc. 10.0 ppm, 24 h): 10%; % Mortality 48 h ([2]; Conc. 10.0 ppm, 48 h): 50% |
| N#Cc1cn(-c2c(Cl)cc(Cl)cc2Cl)nc1C1(c2ccc(Cl)cc2Cl)CC1 [Example 18] |  |  |  |  |  |  | 0% | 0% |  |
| CC1(c2nn(-c3c(Cl)cc(Cl)cc3Cl)cc2C#N)CC1(Cl)Cl (centres unmarked) [Example 6] |  |  |  |  |  |  | 70% | 70% | % Mortality 24 h ([2]; Conc. 1.0 ppm, 24 h): 10%; % Mortality 48 h ([2]; Conc. 1.0 ppm, 48 h): 10% |
| COc1ccc(C2(c3nn(-c4c(Cl)cc(Cl)cc4Cl)cc3C#N)CC2)cc1 [Example 13] |  |  |  |  |  |  | 0% | 0% |  |
| N#Cc1c(C2CC2)nn(-c2c(Cl)cc(C(F)(F)F)cc2Cl)c1N [Example 24] |  |  |  |  |  |  |  |  | % Mortality 24 h ([2]; Conc. 10.0 ppm, 24 h): 0%; % Mortality 48 h ([2]; Conc. 10.0 ppm, 48 h): 0% |
| CC1(c2nn(-c3c(Cl)cc(Cl)cc3Cl)c(Br)c2C#N)CC1(Cl)Cl (centres unmarked) [Example 28] | 0% | 10% | 0% | 0% | 95% | 100% | 100% | 100% |  |
| CC1(c2nn(-c3c(Cl)cc(Cl)cc3Cl)c(N)c2C#N)CC1(Cl)Cl (centres unmarked) [Example 25] |  |  |  |  |  |  | 5% | 5% | % Mortality 24 h ([2]; Conc. 10.0 ppm, 24 h): 0%; % Mortality 48 h ([2]; Conc. 10.0 ppm, 48 h): 0% |
| COc1ccc(C2(c3nn(-c4c(Cl)cc(C(F)(F)F)cc4Cl)cc3C#N)CC2)cc1 [Example 9] |  |  |  |  |  |  | 0% | 0% |  |
| CN(C)C=Nc1c(C#N)c(C2(C)CC2(Cl)Cl)nn1-c1c(Cl)cc(C(F)(F)F)cc1Cl (centres unmarked) [Example 38] |  |  |  |  |  |  | 0% | 0% |  |
| CCN(CC)c1c(C#N)c(C2(C)CC2(Cl)Cl)nn1-c1c(Cl)cc(C(F)(F)F)cc1Cl (centres unmarked) [Example 33] | 20% | 100% | 0% | 0% | 90% | 90% | 100% | 100% |  |
